# Assay results reported in patent publication EP1338283A1, “Use of neoruscine to treat alopecia” (Pierre Fabre Dermo-Cosmetique, priority 2002, dated 2003).
# How the values were obtained:
# follicule pileux humain = test: Growth of human hair follicle ex vivo; format: cell-based; settings: 5 days of treatment, activity versus controls
# Procedure: Les follicules pileux sont issus de scalp humain provenant du service de chirurgie plastique des hôpitaux ou des cliniques. La peau est rasée puis lavée dans 10 bains successifs de 10 min de PBS supplémentés d'antibiotiques (pénicilline 100 unités/ml et streptomycine 100 µg/ml). Les follicules en phase anagène reconnaissables car très vascularisés sont ensuite isolés de la peau sous la loupe binoculaire et débarrassés de la graisse. Ils sont ensuite incubés à 37°C dans des boîtes de culture dans du milieu de culture DMEM contenant le produit à tester. Le milieu de culture des follicules ne contient pas de sérum. Ce milieu est composé de 10µg/ml d'insuline, de 10 µg/ml de transferrine, de 10 µg/ml d'hydrocortisone, de 1% d'un mélange de pénicilline (100 uités /ml)-streptomycine (100µg/ml), de 2,5 µg/ml de fungizone et de la L-glutamine à 1mM.
# Les follicules sont mis en présence de différentes concentrations de néoruscine (50, 100 et 300 µg/ml) (10 follicules par traitement). Les témoins sont cultivés dans du milieu sans produit.
# La croissance de la tige des follicules pileux est mesurée à l'aide de papier millimétré sous loupe binoculaire au jour 0 et tous les jours pendant 5 jours. Une caméra numérique permet de saisir les images de follicules pileux et de calculer avec précision leur taux de croissance. Le pourcentage de croissance = (mesure Tx - mesure T0)/ mesure T0). [formula] […]
# gène du VEGF = test: VEGF gene expression (RT-PCR) in dermal papilla cells; format: cell-based, humaine; settings: néoruscine 50 µg/ml, 3 h incubation
# Procedure: La suspension de cellules de la papille folliculaire (10^6 cellules par boîte de 25 cm^2) dans le milieu DMEM est distribuée dans les boîtes de culture puis incubés pendant 12 heures à 37°C dans une atmosphère à 5 % de CO2. Les CPD sont ensuite rincées avec du PBS pour éliminer les cellules non adhérentes.
# Pour chaque lot, les cellules sont pré-incubées pendant 3 heures avec les produits à tester préparés dans du DMEM. Les cellules sont ensuite rincées deux fois au PBS.
# Après rinçage au PBS, les boîtes de culture sont déposées sur de la glace. Les cellules sont traitées avec la solution d'extraction d'ARN, RNAβTM (1 ml/boîte).
# Les lysats cellulaires sont ensuite récupérés, centrifugés après avoir ajouté du chloroforme. Trois phases sont alors observables • inférieure contenant les débris cellulaires - interface contenant l'ADN • […] supérieure avec l'ARN
# Les surnageants sont prélevés, les ARN sont précipités avec de l'isopropanol. […]
# La quantité d'ARN ainsi que la pureté sont déterminées par spectrophotométrie (Chomczynski P., Sacchi N. Anal. Biochem. 1987; 162: […]). […]
# Une caméra UV permet de saisir l'image du gel et la quantification du volume et de l'intensité des bandes correspondant à l'ADNc du VEGF se fait à l'aide d'un logiciel d'analyse d'image.
# [1] = system: gène cytochrome P450 aromatase; test: Cytochrome P450 aromatase gene expression (RT-PCR) in dermal papilla cells; format: cell-based, humaine; settings: néoruscine 5 µg/ml, 3 h exposure, human dermal papilla cells
# Procedure: Nous avons évalué, dans le cadre de cet exemple, l'activité de la néoruscine sur la transcription du gène VEGF par les cellules de la papille dermique humaine en culture.
# Les cellules de la papille dermique sont ensemencées à 10^6 cellules par boîte dans du DMEM à 10 % de SVF et 1 % de Pénicilline/Streptomycine pendant 24 heures à 37°C dans une atmosphère à 5 % CO2. Les cellules de la papille folliculaire sont alors rincées avec du PBS pour éliminer les cellules non-adhérentes puis exposées aux produits à tester dans du DMEM sans SVF (qui pourrait interférer dans le dosage) durant 3 heures.
# Les principes actifs ont été testés en culture à des concentrations non cytotoxiques. Une boîte de culture est réalisée pour chaque lot.
# Après rinçage au PBS, les boîtes de culture sont déposées sur de la glace. Les cellules sont traitées avec la solution d'extraction d'ARN, RNA βTM (1 ml/boîte). […]
# Les surnageants sont prélevés, les ARN sont précipités avec de l'isopropanol. […] La quantité d'ARN ainsi que la pureté sont déterminées par spectrophotométrie.
# L'ARN total (1 µg) est rétro-transcrit en ADN complémentaire une heure à 48°C avec le kit Access RT-PCR system (Promega). […] Une caméra UV permet de saisir l'image du gel et la quantification du volume et de l'intensité des bandes correspondant à l'ADNc et du cytochrome P450 aromatase se fait à l'aide d'un logiciel d'analyse d'image. […]
# VEGF = VEGF assay (ELISA) in supernatants of dermal papilla cell cultures; format: cell-based; settings: néoruscine 50 µg/ml, 24 h treatment, dermal papilla cells, ELISA on supernatants
# Procedure: La suspension de cellules de la papille dermique (10^6 cellules/2 ml) dans le DMEM 10 % SVF est distribuée dans les plaques 6 puits (10^6 cellules/puits) et incubée pendant 18 heures à 37°C dans une atmosphère à 5 % CO2. Les cellules de la papille folliculaire sont alors rincées avec du PBS pour éliminer les cellules non adhérentes puis exposées pendant 24 heures aux produits à tester inclus dans du DMEM sans SVF (qui pourrait interférer dans le dosage). Pour chaque produit testé, 3 puits sont réalisés.
# L'extrait de Ruscus et la néoruscine purifiée sont testés en culture.
# Après 24 heures de traitement, les surnageants sont récupérés, centrifugés puis conservés à -80°C avant leur utilisation ultérieure pour le dosage du VEGF.
# La production du VEGF dans les surnageants est mesurée par Kit Elisa (R&D Biosystems). Les résultats sont exprimés en picogrammes de VEGF par 10^6 cellules et en pourcentages d'activité. Dans ce test la néoruscine à 50 µg/ml stimule la production du VEGF de 329 %.
substance,measurement,setting,value
néoruscine,"croissance des follicules pileux humains, activité du traitement",follicule pileux humain; néoruscine 100 µg/ml,"77,08%"
same,"croissance des follicules pileux humains, activité du traitement",follicule pileux humain; néoruscine 300 µg/ml,"118,09%"
same,stimulation de la transcription du gène du VEGF,gène du VEGF,"24,5%"
same,stimule la transcription du gène cytochrome P450 aromatase,[1],81%
same,stimule la production du VEGF,VEGF,329%
